Measured values taken from paper PMC7004151, “Synthesis and Structure‐Activity Relationships of N‐(4‐Benzamidino)‐Oxazolidinones: Potent and Selective Inhibitors of Kallikrein‐Related Peptidase 6” (Chemmedchem, 2019).

Assays:
[1] = Plasma stability assay; assay type: in vitro ADME, mouse
Procedure: Plasma stability assay: Test compound (10 μM) was incubated in pre‐warmed plasma at 37 °C (that is buffered to pH 7.4 in ratio of 70 : 30 plasma to buffer). Immediately, at time zero, then at 30, 60, 120, and 180 min, a 50 μL aliquot of the incubation mixture was removed and mixed with 200 μL acetonitrile containing Donepezil as the internal standard (50 ng/mL) to stop the reaction. The samples were centrifuged to sediment the precipitated protein and the plates then sealed prior to UPLC‐MS/MS analysis using a Quattro Premier XE (Waters Corporation, USA). XLfit (IDBS, UK) was used to calculate the exponential decay and consequently the rate constant (k) from the ratio of peak area of test compound to internal standard at each time point. The half‐life was calculated for each test compound from the rate by using the following calculation: t1/2=0.693/k

[2] = molecular target: T1, Human trypsin (Homo sapiens, UniProt P07477); test: Trypsin enzyme inhibition assay; assay type: biochemical; details: read-out: Trypsin pIC50 (converted)
T1 construct: purchased Polymun Scientific
Procedure: Human thrombin was purchased from Biopur. Human trypsin was purchased from Polymun Scientific. Human Factor Xa was purchased from Enzo Life Sciences. […] Fluorescence intensity was then read at ex/em 485/535 following incubation for 1 h at room temperature (thrombin and factor Xa) or 20 min (trypsin).

[3] = tested on: HCT116 cells; test: HCT116 cell growth and viability; assay type: cell-based; details: at the tested concentrations (data not shown)
Excerpt: We have previously shown that knockdown of KLK6 reduces migration and invasion of HCT116 cells in vitro.13 In order to test whether this effect could be recapitulated with small molecule KLK6 inhibitors, we measured the ability of 32 to reduce invasion of HCT116 cells. […] HCT116 cell growth and viability was not altered upon treatment with compounds 9 and 32 at the tested concentrations (data not shown).

[4] = molecular target: T2, KLK8 (Homo sapiens, UniProt O60259); test: KLK8 enzyme inhibition assay; assay type: biochemical; details: read-out: KLK8 pIC50 (converted)
T2 construct: purchased 2B scientific
T2 sequence (O60259 33-260): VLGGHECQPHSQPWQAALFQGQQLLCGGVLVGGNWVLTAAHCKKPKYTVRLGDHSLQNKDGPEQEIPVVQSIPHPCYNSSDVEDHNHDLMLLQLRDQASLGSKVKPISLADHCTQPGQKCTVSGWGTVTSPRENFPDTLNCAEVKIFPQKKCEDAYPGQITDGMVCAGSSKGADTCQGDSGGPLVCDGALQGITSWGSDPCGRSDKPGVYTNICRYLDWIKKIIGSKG
Procedure: Enzyme inhibition assays: All chemicals were purchased from Sigma Aldrich (Gillingham, UK) unless otherwise stated. All experiments were conducted in 384 well black, low volume microplates (Greiner 784076) with a final volume of 20 μL and compounds were dispensed into assay plates using an ECHO 550 acoustic dispenser (Labcyte). KLK6 (5 nM) (prepared as in ref. 21) was incubated with test compounds for 30 min at room temperature in assay buffer (50 mM Tris, pH 7.5, 150 mM NaCl, 1 mM EDTA, 0.05 % tween 20, 0.1 % bovine serum albumin (BSA), 1 mM dithiothreitol (DTT)) before the reaction was started by addition of 20 μM Boc‐Phe‐Ser‐Arg‐AMC substrate (Bachem). Fluorescence intensity was read at ex/em 355/460 following incubation for 2 h in the dark at room temperature.
Assays using KLK7 and KLK8 (2B scientific) were conducted in the same manner as for KLK6 with the following exceptions. Both KLK7 and KLK8 required activation before assaying. KLK7 was combined with an equal volume of 20 μg/ml thermolysin (R&D systems) in activation buffer (50 mM Tris, pH 7.5, 10 mM CaCl2, 150 mM NaCl and 0.05 % Brij‐L23) and incubated at 37 °C for 2 h, the reaction was stopped with the addition of 100 mM EDTA in stop solution (50 mM Tris, 150 mM NaCl, pH 8.5). KLK8 was combined with an equal volume of 0.4 mU/mL lysyl endopeptidase (Alpha laboratories) in activation buffer (50 mM Tris, pH 8.0) and incubated at 37 °C for 30 min. Activated KLK7 (40 nM) and KLK8 (25 nM) were assayed with 40 μM Mca‐RPKPVE‐Nval‐WRK(Dnp)‐NH2 fluorogenic MMP substrate (R&D systems) and 25 μM Boc‐V‐P‐R‐AMC substrate (R&D systems), respectively.

[5] = tested on: HCT116 cells; test: HCT116 Matrigel invasion assay; assay type: cell-based; details: after 24 h; 9 at multiple concentrations; 32 at 50 nM and 500 nM
Procedure: Figure 5 HCT116 cells were treated with 9 or 32 at the indicated concentrations and plated on Matrigel®‐coated filters. The upper chamber contained serum‐free medium, while the lower chamber contained 10 % fetal bovine serum. After 24 h, the number of invading cells was measured optically. (A) This figure is one representative example of four biological replicates, each with similar outcomes. Error bars are SEM. Technical replicates: DMSO and 9 at 5 nM (n=3); 9 at 50 and 500 nM and 32 at all concentrations (n=6). Statistical significance was calculated using an unpaired two‐tailed t‐test. n.s=p≥0.05; **=p<0.01; ***=p<0.001. (B) Representative images (Scale bar, […]) of stained invaded cells outside of the inserts 24 h hours after treatment with 9, 32, or DMSO solvent control at the indicated concentrations. Phase contrast images were taken with EVOS FL Cell imagine system FL Auto microscope (Bio‐Rad).
Invasion assay: The HCT116 colorectal adenocarcinoma cell line (ATCC® CCL‐247™) was maintained in Dulbecco's Modified Eagle Medium (DMEM) with […] glucose, L‐glutamine w/o sodium pyruvate, supplemented with 10 % FBS and 1 % penicillin/streptomycin. […] The samples were transferred to a new 96 well plate and read at 560 nm on a Synergy 2 Multi‐Detection Microplate Reader (Bio‐Tek Instruments, Inc., Winooski, VT).

SMILES: CC[C@H](NC(=O)[C@H]1CN(c2ccc(C(=N)N)cc2)C(=O)O1)c1cccc2ccccc12 [Compound 32, (5R)‐3‐(4‐carbamimidoylphenyl)‐N‐((S)‐1‐(naphthalen‐1‐yl)propyl)‐2‐oxooxazolidine‐5‐carboxamide]
- stability in mouse plasma ([1]; over 3 h): no instability
- half-life at 10 μM ([1]; pH 7.4, mouse plasma, 37 °C, read-out: Mouse Plasma Stability (t1/2)): > 3 h
- IC50 [2]: 63.1 nM
- HCT116 cell growth and viability [3]: not altered
- IC50 [4]: 200 nM
- invasion of HCT116 cells [5]: significant reduction in invasion
